{"source": "patent EP2408450B1", "about": "“ALPHA-(N-SULFONAMIDO)ACETAMIDE COMPOUND AS AN INHIBITOR OF BETA AMYLOID PEPTIDE PRODUCTION” (Bristol-Myers Squibb Company, priority 2009, dated 2010)", "key": {"[1]": {"assay": "Metabolic stability in liver microsomes (mouse)", "type": "in vitro ADME", "method": "(§1) Mouse, rat, dog, human, and cynomolgus monkey liver microsomes were obtained from BD Gentest (Woburn, MA). The lot numbers were 13 (mouse), 8 (rat), 8 (dog), 19 and 26 (human), and 3 (cynomolgus monkey). […] The reaction, conducted in triplicate, was initiated by the addition of NADPH followed by incubation at 37°C for 50 minutes. Aliquots of samples (0.25 mL) were taken at 0, 5, 10, 20, 30, 40 and 50 minutes and the reaction was quenched by the addition of 3 volumes of acetonitrile. […] The reaction, conducted in triplicate, was initiated by the addition of NADPH followed by incubation at 37 °C for 50 minutes. Aliquots of samples (0.25 mL) were taken at 0, 5, 10, 20, 30, 40 and 50 minutes and the reaction was quenched by the addition of 3 volumes of acetonitrile. […] The reaction, conducted in duplicate, was initiated by the addition of NADPH followed by incubation at 37°C for 40 minutes. Aliquots of samples (0.25 mL) were taken at 0, 5, 10, 15, 20, 30 and 40 minutes and the reaction was quenched by the addition of 3 volumes of acetonitrile. For all studies, samples were analyzed immediately by an LC/MS method."}, "[2]": {"assay": "Metabolic stability in liver microsomes (dog)", "type": "in vitro ADME", "method": "as §1"}, "[3]": {"assay": "Metabolic stability in liver microsomes (cynomolgus monkey)", "type": "in vitro ADME", "method": "as §1"}, "[4]": {"target": "presenilin target site of the γ-secretase complex", "assay": "Presenilin binding assay (radioligand displacement, THP-1 membranes)", "details": "mean ± SD, n = 8", "method": "Radioligand displacement assays with [^3H] (R)-4-((N-(1-amino-4-methyl-1-oxopentan-2-yl)-4-chlorophenylsulfonamido)methyl)-N-(2-methoxyethyl)benzamide were carried out using a method previously described for [^3H] (2R,3S)-2-isobutyl-N1-((S)-2-oxo-1-(3-phenoxybenzyl)azepan-3-yl)-3-propylsuccinamide (RE987, compound A [Seiffert, D. et al., \"Presenilin-1 and -2 are molecular targets for γ-secretase inhibitors\", J. Biol. Chem., 275(44):34086-34091 (2000)]). Several experiments were performed to confirm that [^3H] (R)-4-((N-(1-amino-4-methyl-1-oxopentan-2-yl)-4-chlorophenylsulfonamido)methyl)-N-(2-methoxyethyl)benzamide bound to γ-secretase. First, the specific binding of [^3H] […] (R)-4-((N-(1-amino-4-methyl-1-oxopentan-2-yl)-4-chlorophenylsulfonamido)methyl)-N-(2-methoxyethyl)benzamide binding to THP-1 membranes correlated well with γ-secretase potency both as measured using previous radioligand binding assays and inhibition of Aβ formation in cultured cells.\nTHP-1 cells were grown in Spinner cultures in RPMI 1640 containing L-glutamine (Life Technologies Inc.) and 10 µM β-mercaptoethanol to a cell density of 5 x 10^5/mL. […] Filters were washed three times with 0.3 mL per well of phosphate buffered saline pH 7.0 at 4°C and radioactivity was measured using a Wallac 1450 Microbeta liquid scintillation counter (PerkinElmer, Boston, MA). […]"}, "Aβ42": {"test_system": "Aβ42", "assay": "Inhibition of Aβ42 formation in cultured H4 APP751 SWE cells", "type": "cell-based", "details": "H4-8Sw cells, mean ± SD, n = 45", "quoted_text": "Cells were maintained in log phase through twice weekly passage at a 1:20 dilution. […] Following incubation for 19 hours in 5% CO2 at 37°C, plates were briefly centrifuged (1000 rpm, 5 min). […] Antibody cocktails were freshly prepared by dilution into 40 mM Tris-HCl (pH 7.4) with 0.2% BSA and added to assay plates. […] Assay plates containing antibodies were sealed with aluminum foil and incubated overnight at 4°C. Signal was determined using a Viewlux counter (Perkin Elmer) and IC50 values determined using curve fitting in CurveMaster (Excel Fit based)."}, "CYP3A4 mRNA": {"test_system": "CYP3A4 mRNA", "details": "human, 3 days, 20 µM", "quoted_text": "[[2-fluoro-4-(1,2,4-oxadiazol-3-yl)phenyl]methyl]amino]-5,5,5-trifluoropentanamide to induce CYP3A4 mRNA was evaluated in vitro using the Fa2N-4 cell line. The Fa2N-4 cell is an immortalized human hepatocyte line that was created using the Simian virus 40 (SV40) T antigen as the immortalizing gene, while retaining basal expression and inducibility of several CYP isoforms, including CYP3A4. Fa2N-4 cells and MFE Support Media F were provided by XenoTech, LLC (Lenexa, Kansas).\nUpon the receipt of the cells, the media were changed and the cells maintained overnight in a humidified, CO2-supplied incubator. After this adaptation period, the cells were examined under a light microscope and a determination was made as to whether the cells were morphologically normal and suitable for use. During the treatment period, the cells were visually inspected on a daily basis; cellular morphology, confluency, and signs of toxicity due to the test article were documented as necessary. […] Rifampicin (10 µM), a prototypical CYP3A4 inducer, was used as the positive control. Fa2N-4 cells were exposed to the test articles for a total of 3 days. The culture medium was replaced daily with fresh medium containing the test articles. After a total of ~72 hours of exposure, medium was aspirated and the cells washed once with warm phosphate buffered saline solution before adding the cell lysis buffer (Qiagen, Valencia, CA)."}}, "data": [{"smiles": "NC(=O)[C@@H](CCC(F)(F)F)N(Cc1ccc(-c2ncon2)cc1F)S(=O)(=O)c1ccc(Cl)cc1", "note": "[(2R)-2-[[(4-chlorophenyl)sulfonyl][[2-fluoro-4-(1,2,4-oxadiazol-3-yl)phenyl]methyl]amino]-5,5,5-trifluoropentanamide]", "values": [{"measurement": "rate of in vitro metabolism", "setting": "[1]; mouse microsomes, NADPH-fortified, 1 µM", "value": 690, "unit": "pmol/min/mg protein"}, {"measurement": "predicted in vivo (serum) clearance", "setting": "[1]; mouse, scaled from liver microsome rate", "value": "approximately 87 mL/min/kg"}, {"measurement": "rate of in vitro metabolism", "setting": "[2]; dog microsomes, NADPH-fortified, 1 µM", "value": 40, "unit": "pmol/min/mg protein"}, {"measurement": "predicted in vivo (serum) clearance", "setting": "[2]; dog, scaled from liver microsome rate", "value": "~14", "unit": "mL/min/kg"}, {"measurement": "rate of in vitro metabolism", "setting": "[3]; cynomolgus monkey microsomes, NADPH-fortified, 1 µM", "value": 495, "unit": "pmol/min/mg protein"}, {"measurement": "predicted in vivo (serum) clearance", "setting": "[3]; cynomolgus monkey, scaled from liver microsome rate", "value": "~39", "unit": "mL/min/kg"}, {"measurement": "Ki", "setting": "[4]", "value": 0.48, "unit": "nM"}, {"measurement": "IC50", "setting": "Aβ42", "value": "0.27 ± 0.12", "unit": "nM"}, {"measurement": "magnitude of induction as % of the induction response caused by rifampicin", "setting": "CYP3A4 mRNA", "value": 22, "unit": "%"}]}]}
